In ChEMBL document CHEMBL3860035, “Isolation and Structure Elucidation of Cytotoxic Saccharothriolides D to F from a Rare Actinomycete Saccharothrix sp. and Their Structure-Activity Relationship” (J Nat Prod, 2016):
Structures can show the parent of a compound that is named as a salt.

Columns and labels:
[1] = Cytotoxicity against human HT1080 cells assessed as reduction cell viability after 72 hrs by WST8-based colorimetric analysis; type: functional; settings: HT-1080, 72 h
[2] = Cytotoxicity against human HT1080 cells; type: functional, cell-based; settings: HT-1080

Row | Compound | IC50 [1] [µM] | IC50 [2] [µM]
1 | C[C@@H]1[C@@H](Nc2ccccc2O)[C@@H](C)C(=O)[C@@H](C)[C@@H](O)[C@H](C)C(=O)O[C@@H]1c1cc(O)cc(O)c1 | 29.2 | –
2 | C[C@@H]1[C@@H](Nc2ccccc2C(=O)O)[C@@H](C)C(=O)[C@@H](C)[C@@H](O)CC(=O)O[C@@H]1c1cc(O)cc(O)c1 | 66.4 | –
3 | C[C@@H]1[C@@H](Nc2ccccc2O)[C@@H](C)C(=O)[C@@H](C)[C@@H](O)[C@@H](C)C(=O)O[C@@H]1c1cc(O)cc(O)c1 | – | 13.9
4 | COc1cccc2c1C(=O)c1c(O)c3c(c(O)c1C2=O)C[C@@](O)(C(=O)CO)C[C@@H]3O[C@H]1C[C@H](N)[C@H](O)[C@H](C)O1 [DOXORUBICIN HYDROCHLORIDE] | 0.38 | –
